Results published in publication PMC10394516, “The pharmacokinetic profile of brensocatib and its effect on pharmacodynamic biomarkers including NE, PR3, and CatG in various rodent species” (Frontiers in Pharmacology, 2023).

Experiments:
Type in all cases: in vivo
PR3 = assay: Bone marrow PR3 activity after repeated dosing, Sprague Dawley rats; details: for Reduction of PR3 activity vs vehicle / Change From Vehicle Control (%) PR3: 9 days
Description: (§1) Briefly, animals were weighed and randomized into different treatment groups. In total, three different dosing levels of brensocatib were tested in each species and strain; each QD dosing level was equivalent to 1.5-times the matching daily BID dose. For BID dosing, the second daily dose was administered 8-h post the morning dose. C57BL/6 mice were dosed either BID or QD for 7 consecutive days at 0/0, 0.5/0.75, 2/3, and 20/30 mg/kg/day (BID/QD). BALB/c mice were dosed for 7 consecutive days at 0/0, 0.2/0.3, 2/3, and 20/30 mg/kg/day (BID/QD). SD rats were dosed for 9 consecutive days at 0/0, 0.2/0.3, 2/3, and 20/30 mg/kg/day (BID/QD). Wistar rats were dosed for 7 consecutive days at 0/0, 0.2/0.3, 2/3, and 20/30 mg/kg/day (BID/QD).
(§2) At the completion of the study, animals were sacrificed 16–24 h post their final dose. The hind limb bones (femurs and tibias) were collected at necropsy for bone marrow analysis of NSP activities by kinetic enzymatic assays ([Basso et al., 2022]). See section Quantification of Bone Marrow NSP Activities for details.
(§3) For the mice, each animal had the femurs and tibias of both hind limbs harvested. For the rat, the femur and tibia from a single hind limb per animal was harvested. Bones were kept on wet ice until processing for bone marrow collection. In brief, bone cutters were used to cut the epiphysis (knobby ends) off the long bones to expose the bone marrow filled cavity. Each bone cavity was then flushed with 5 mL/bone (mouse) or 10 mL/bone (rat) of ice-cold RPMI media through a […] and collected in a 50-mL conical tube. Cells were spun down at 2,500 × g at 4°C for 5 min and the supernatant was aspirated. After which, bone marrow cells were lysed with 1X red blood cell (RBC) lysis buffer (Abcam, ab204733) to eliminate contaminating RBCs and washed with PBS to remove any residual RBC lysis buffer. The resulting white blood cells (WBC) were subsequently lysed with 1% (v/v) Triton X-100 in PBS. Lysates were added to 96-well plates and stored at −80°C until NSP analyses.
(§4) Bone marrow lysates prepared as described above were diluted and plated onto 96-well assay plates to quantify NSP activities as described previously ([Basso et al., 2022]). Briefly, peptide substrates for NE (N-Methoxysuccinyl-Ala-Ala-Pro-Val-7-amido-4-methylcoumarin; Sigma; St. Louis, MO; Excitation/Emission at 350/450 nm), PR3 ((7-Methoxycoumarin-4-yl)acetyl-lysyl-(picolinoyl)-Tyr-Asp-Ala-Lys-Gly-Asp-N-3-(2-4-dinitrophenyl)-2-3-diaminopropyonyl-NH2); GenScript; Piscataway, NJ; Excitation/Emission at 340/430 nm), and CatG (N-Succinyl-Ala-Ala-Pro-Phe p nitroanilide; Sigma; Absorbance at 405 nm) were added at a final assay concentration of 100 μM, 40 μM, and 200 μM, respectively, and either fluorescence or absorbance was quantified using a Synergy microplate reader (BioTek; Winooski, VT). The specific NSP activity in each sample was calculated as the total activity minus the activity in the presence of a specific NSP inhibitor (if used), including elastase inhibitor (Abcam) for NE, sivelestat (Abcam) for PR3, and cathepsin G inhibitor I (Cayman Chemical; Ann Arbor, MI) for CatG. NSP concentrations were interpolated based on their activities relative to the standard curves created using active human NE protein (Sigma), active human PR3 protein (Sigma), and active human CatG protein (Sigma), respectively. Due to unavailability of commercial mouse and/or rat NE, PR3, and CatG proteins, the corresponding human proteins were used instead since their catalytic ability is considered to be conserved across species. A portion of each cell lysate sample was retained for protein quantification using a Pierce™ BCA Protein Assay Kit (Thermo Fisher). The NSP activities were normalized for the cell lysate protein concentrations.
(§5) The Pierce™ BCA Protein Assay Kit was used to measure the total protein of the samples after lysis to allow for subsequent normalization. […]

CatG = assay: PD onset study, bone marrow CatG activity, C57BL/6 mice; details: for Percent change from vehicle CatG: bone marrow, 5 mg/kg BID oral
Description: A 14-day PD onset study was performed in female C57BL/6 mice dosed BID. Mice were dosed by oral gavage either with vehicle (0 mg/kg) or 5 mg/kg brensocatib (BID; 10 mg/kg/day) for 1, 4, 7, 10, or 14 consecutive days. Plasma was collected from animals during the first 24 h of dosing at 1, 2, 8, 9, 10, and 24 h post the initial dose. Note the 8- and 24-h plasma samples were prior to the afternoon dose and the second day dose (if applicable), respectively. Plasma was used for PK analysis via LC-MS/MS. On prescribed days, animals were sacrificed 16 h post final dose, and the hind bones (femurs and tibias) were collected at necropsy for bone marrow analysis of NSP activities by kinetic enzymatic assays.
as §3, §4
The Pierce™ BCA Protein Assay Kit was used to measure the total protein of the samples after lysis to allow for subsequent normalization. The manufacturer’s instructions for use were followed when performing this assay on a portion of the sample lysates which were diluted in PBS, the same diluent as used for preparation of the standard. Plates were read on the Biotek Synergy plate reader with Gen5 software.

NSPs (NE, PR3, CatG) = assay: PD recovery study, bone marrow NSP activities (all three NSPs), C57BL/6 mice; details: after 8 days of 5 mg/kg BID
Description: A PD recovery study was performed in female C57BL/6 mice dosed BID for 8 consecutive days. Mice were dosed by oral gavage either with vehicle (0 mg/kg) or 5 mg/kg brensocatib (BID; 10 mg/kg/day). After 8 consecutive days of dosing, the animals were maintained without further treatment until prescribed sacrifice (days: 1, 3, 6, 8, and 10 days post final dose). Plasma was collected from animals during the first 24 h of dosing at −0.5 (half-hour prior to dosing), 1, 8, 9, and 24 h post initial dose. Note that the 8- and 24-h plasma samples were prior to the afternoon dose and prior to the second day dose, respectively. Plasma was used for PK analysis via LC-MS/MS. […]
Bone marrow lysates prepared as described above were diluted and plated onto 96-well assay plates to quantify NSP activities as described previously ([Basso et al., 2022]). […] The specific NSP activity in each sample was calculated as the total activity minus the activity in the presence of a specific NSP inhibitor (if used), including elastase inhibitor (Abcam) for NE, sivelestat (Abcam) for PR3, and cathepsin G inhibitor I (Cayman Chemical; Ann Arbor, MI) for CatG. […] A portion of each cell lysate sample was retained for protein quantification using a Pierce™ BCA Protein Assay Kit (Thermo Fisher). […]

NE = assay: Bone marrow NE activity after repeated dosing, BALB/c mice; details: for Reduction of NE activity vs vehicle / Change From Vehicle Control (%) NE: 7 days
Description: as §1, §2, §3, §4, §5

[1] = BID highest dose (20 mg/kg/day)
[2] = highest dose level 20/30 (BID/QD) mg/kg/day
[3] = 5 mg/kg BID, curve fit with free min and max

In the case of Cn1c(=O)oc2ccc(-c3ccc(C[C@@H](C#N)NC(=O)[C@@H]4CNCCCO4)cc3)cc21 [brensocatib], the “Reduction of PR3 activity vs vehicle” value (PR3; [1]) is reported as 68%, the “Reduction of PR3 activity vs vehicle” value (PR3; QD highest dose (30 mg/kg/day)) is reported as 72% and the “Combined BID and QD percent reduction, PR3” value (PR3; [2]) is reported as 70%. For the same molecule, the “Change From Vehicle Control (%) PR3” value (PR3; oral BID 0.2 mg/kg/day) was “+23% (p = 0.8292)”, the “Change From Vehicle Control (%) PR3” value (PR3; oral BID 2 mg/kg/day) was −31% (p = 0.6727) and the “Change From Vehicle Control (%) PR3” value (PR3; oral BID 20 mg/kg/day) was −68% (p = 0.0907). For the same molecule, the “Change From Vehicle Control (%) PR3” value (PR3; oral QD 0.3 mg/kg/day) was −34% (p = 0.4869), the “Change From Vehicle Control (%) PR3” value (PR3; oral QD 3 mg/kg/day) was −59% (p = 0.0837) and the “Change From Vehicle Control (%) PR3” value (PR3; oral QD 30 mg/kg/day) was −72% (p = 0.0285). The “Onset: Maximum reduction (plateau), CatG” value (CatG; [3]) was 97%, the “Onset: Time to reach 50% reduction, CatG” value (CatG; [3]) was 2.8 days and the “Onset: Time to reach max reduction, CatG” value (CatG; [3]) was 8.1 days. The “Percent change from vehicle CatG” value (CatG; after 1 day of treatment) was −26% (0.0727), the “Percent change from vehicle CatG” value (CatG; after 4 days of treatment) was −81% (p < 0.0001) and the “Percent change from vehicle CatG” value (CatG; after 7 days of treatment) was −99% (p < 0.0001). The “Percent change from vehicle CatG” value (CatG; after 10 days of treatment) was −93% (p < 0.0001), the “Percent change from vehicle CatG” value (CatG; after 14 days of treatment) was −99% (p < 0.0001) and the “Time to full recovery of NSP activity (visually)” value (NSPs (NE, PR3, CatG)) was 6–8 days post final dose. The “Reduction of NE activity vs vehicle” value (NE; [1]) was 79%, the “Reduction of NE activity vs vehicle” value (NE; QD highest dose (30 mg/kg/day)) was 46% and the “Combined BID and QD percentage reduction, NE” value (NE; [2]) was 62%. For the same molecule, the “Change From Vehicle Control (%) NE” value (NE; oral BID 0.2 mg/kg/day, 16 h post final dose) was “+26% (p = 0.4425)”, the “Change From Vehicle Control (%) NE” value (NE; oral BID 2 mg/kg/day, 16 h post final dose) was −23% (p = 0.5256) and the “Change From Vehicle Control (%) NE” value (NE; oral BID 20 mg/kg/day, 16 h post final dose) was −79% (p = 0.0008). For the same molecule, the “Change From Vehicle Control (%) NE” value (NE; oral QD 0.3 mg/kg/day, 24 h post final dose) was −3% (p = 0.9990), the “Change From Vehicle Control (%) NE” value (NE; oral QD 3 mg/kg/day, 24 h post final dose) was −16% (p = 0.8297) and the “Change From Vehicle Control (%) NE” value (NE; oral QD 30 mg/kg/day, 24 h post final dose) was −46% (p = 0.0959).
